Data on 102 molecules can be found in PubChem BioAssay AID493003 (Sanford-Burnham Center for Chemical Genomics, 2010).

Molecules are shown by their SMILES. The source made the active and inactive calls. No rule for the calls is given here.

This experiment relates to S. cerevisiae tim10-1 mutant growth, luminescence. The experiment in a line: growth inhibitors of tim10-1 mutant yeast, dose response, luminescence, S. cerevisiae, uHTS hits (AID 493003).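 Also: yeast growth measured after about 22 hours at 25 °C.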
For the molecule `CCCCOc1cccc(-c2cc(C(=O)NNC(=S)NCC)c3ccccc3n2)c1`, the IC50 was 89.3 µM. With `C/C(=N\OC(=O)NC(C)C)c1sc(-c2ccc(Cl)cc2)nc1C` the figure was 33.5 µM; with `CC(/C=N/Nc1nc(C)cc(C)n1)=C\c1ccc(C(C)C)cc1`, 39.1 µM; with `CCCN1C(=O)/C(=N\OCC(=O)Nc2ccc(C(C)C)cc2)c2ccccc21`, 60.9 µM. In the case of `C/C(=N\N=C1\NC(=O)C(CC(=O)Nc2ccc(C)c(Cl)c2)S1)C(C)(C)C` (configuration not stated) it was 47.3 µM; in that of `Cc1cccc(C(=O)CC(=O)c2cc(Cl)ccc2O)c1`, 19 µM; in that of `CCOC(=O)c1ccc(N2C(=O)CC(N3CCC(Nc4ccc(F)cc4)CC3)C2=O)cc1` (configuration not stated), 55 µM.

In the case of `O=C(OCn1ncc(Br)c(Br)c1=O)c1ccc(F)cc1`, the 50% inhibitory concentration (IC50) is 3.3 µM. In the case of `FC(F)C(F)(F)C(F)(F)C(F)(F)c1cc(-c2ccccc2)n[nH]1` it was 15.2 µM; in that of `CN(CCCC(=O)O)c1ccc(N=Nc2ccc([N+](=O)[O-])cc2)cc1`, 19.5 µM. With `Cn1c2ccccc2c(=O)c2ccc(C#CC3(N)CCCCC3)cc21` the figure was 27.1 µM; with `Nc1nc(N)c(C=Nc2ccc(Br)cc2)c(Nc2ccc(Br)cc2)n1`, 16.8 µM; with `O=C(CN1CCN(S(=O)(=O)c2ccc3ccccc3c2)CC1)Nc1ccc2c(c1)CCC2`, 36.6 µM. With `COc1ccccc1N1CCN(CC(=O)Nc2ccc(Cl)c(C(F)(F)F)c2)CC1` the figure was 58.7 µM; with `O=C(c1ccc2nc(N3CCCCC3)sc2c1)N1CCN(c2ccccn2)CC1`, 46.1 µM; with `CCCOc1ccc2c(c1)C(=NN=C(N)N)c1cc(OCCC)ccc1-2`, 19.8 µM. Turning to `O=C(Nc1ncc2c(n1)-c1ccccc1CC2)c1cccc(Cl)c1`, the IC50 is 52.7 µM. In the case of `CC(C)n1c(-c2ccco2)csc1=Nc1cccnc1` it was 43 µM; in that of `CC(C)NC(=S)N/N=C1\CCCCC1C1CCCCC1` (configuration not stated), 37.5 µM; in that of `C=CC(=O)Oc1ccc(N2Cc3ccccc3C2=O)cc1`, 7.16 µM. On to `COc1ccc(C2NC(=S)NC3=C2CCc2cc(OC)ccc23)cc1` (configuration not stated), for which the IC50 is 36.7 µM.

For the molecule `COc1c(OC(C)=O)ccc(/C=C/c2ccc3ccccc3n2)c1[N+](=O)[O-]`, the IC50 was 43.2 µM.

For the molecule `COc1ccc(-c2cc(C(=O)N3CCN(c4ncccn4)CC3)c3ccccc3n2)c(OC)c1`, the IC50 is 28.5 µM. With `COc1ccc(-c2cc(-c3ccc(Cl)cc3)n[nH]2)c(O)c1` the figure was 27.1 µM; with `CO/N=C/c1ccc(Sc2ccccc2N)c([N+](=O)[O-])c1`, 56.4 µM; with `COc1ccc(-n2cc(-c3ccccc3)c3c(=S)nc[nH]c32)cc1`, 13 µM. For `N#C/C(=C\c1c[nH]c2ccc(Br)cc12)c1ccccn1`, the half-inhibitory concentration (IC50) was 33.4 µM.

Regarding `CCc1nc(C)cn1S(=O)(=O)c1cc([N+](=O)[O-])ccc1Cl`, the 50% inhibitory concentration (IC50) was 16.8 µM. With `COc1ccc(Cl)cc1NC(=S)NCCSc1ccc(C)cc1` the figure was 17.6 µM. With `COc1ccc2cc3cc(C(=O)NCCN4CCc5ccccc5C4)oc3nc2c1` the figure was 0.69 µM. With `CCN(CC)CCN(C(=O)c1ccc2c(c1)CCCC2)c1nc2ccc(OC)cc2s1` the figure was 22 µM; with `Cc1ccc(NC(=S)NNC(=O)CSc2nc3ccccc3c(=O)n2-c2ccc(C)cc2)cc1`, 44.9 µM. For `Nc1cc(Cl)ccc1Oc1ccc2ccccc2c1`, the 50% inhibitory concentration (IC50) is 23.1 µM.

Consider `Nc1ccccc1Sc1ccc(C(F)(F)F)cc1[N+](=O)[O-]`, for which the IC50 is 28.9 µM. Take `N/C(=N\OC(=O)Cc1ccc([N+](=O)[O-])cc1)c1cccc(Br)c1`: the IC50 is 27.4 µM.

In the case of `O/N=C(\c1ccc(Cl)cc1Cl)c1ncc(C(F)(F)F)cc1Cl`, the 50% inhibitory concentration (IC50) is 19.6 µM.

For the molecule `Cc1cccc(/C=N/n2c(COc3ccccc3)n[nH]c2=S)c1`, the IC50 is 36.6 µM. Consider `CC(C)C[C@@H](CSc1ccc(Br)cc1)N1CCN(CC(C)C)CCC1=O`, for which the half-inhibitory concentration (IC50) was 25.9 µM. For the molecule `C=CCN(C(=O)c1cccc(S(=O)(=O)N2CCN(C)CC2)c1)c1nc(-c2ccccc2)cs1`, the IC50 was 46.8 µM. In the case of `CC(C)C(=O)N1CCN(c2ccccc2NC(=O)c2ccc([N+](=O)[O-])o2)CC1` it was 11.5 µM; in that of `Cc1nn2c3ccccc3nc2c2ccccc12`, 77.1 µM. On to `O=C(CCNc1ccc(Cc2ccncc2)cc1)c1cccc([N+](=O)[O-])c1`, for which the 50% inhibitory concentration (IC50) is 49.2 µM. With `CC1=CC(C)(C)N2C(=O)C(=O)c3cc(OC(=O)c4ccco4)cc1c32` the figure was 33.4 µM; with `Clc1ccc(-c2nc3cnccn3c2Nc2ccc3c(c2)OCO3)cc1`, 29.9 µM. With `N/C(=N\OC(=O)CCCOc1ccc(Cl)cc1Cl)c1ccncc1`, the IC50 is 47.6 µM. As for `N/C(=N\OC(=O)CC(c1ccccc1)c1ccccc1)c1cccnc1`, the IC50 is 41.8 µM.

For the molecule `COc1ccc(C(=O)/C=C/c2ccccc2)c(O)c1`, the IC50 is 34.2 µM. As to `CN1CCCN(C(c2ccccc2)c2ccc(Cl)cc2)CC1` (configuration not stated), the IC50 was 30.9 µM. As to `Cc1nc2ccccn2c1P(=S)(N1CCCCC1)N1CCCCC1`, the IC50 is 39.7 µM. With `Cc1ccccc1C(=O)NC(=S)Nc1ccccc1N1CCCC1` the figure was 17.3 µM; with `CCn1c(=S)sc2c(=O)n(-c3ccccc3)c(SC)nc21`, 68.4 µM; with `COc1ccc(/C(C)=N/NC(=S)NCCc2ccccc2)cc1`, 5.69 µM. With `CCNC(=S)NNC(=O)c1cc(-c2cc(C)ccc2C)nc2ccccc12` the figure was 24.3 µM; with `O=C(CSc1nc2cc(Cl)ccc2s1)c1ccco1`, 50.6 µM.

With `COc1ccccc1N1CCN(C(=O)c2cc3sccc3n2C)CC1`, the IC50 is 34.6 µM. With `CCCC(=O)Nn1cnc2c(c1=O)C1(CCCC1)Cc1ccccc1-2` the figure was 75.2 µM; with `C=CCN1C(=O)C(O)(CC(=O)c2ccc(-n3cccc3)cc2)c2ccccc21` (configuration not stated), 24.1 µM; with `CCOC(=O)c1ccc2[nH]c3c(c2c1)CCCC3`, 34.4 µM. In the case of `O=C1c2cccc3cccc(c23)C(=O)N1CCN1CCN(CC(O)COc2ccc3ccccc3c2)CC1` (configuration not stated) it was 19.3 µM. On to `COc1cccc(-c2nn(C)c3sc(C(=O)N4CCN(c5ccccn5)CC4)cc23)c1`, for which the IC50 is 46.2 µM. Turning to `NS(=O)(=O)c1ccc(NC(=S)Nc2ccc(Br)c(Cl)c2)cc1`, the concentration for half-maximal inhibition (IC50) was 31.8 µM.

As to `COc1ccc2cc3cc(C(=O)Nc4ccccc4N4CCN(C)CC4)oc3nc2c1`, the 50% inhibitory concentration (IC50) is 17.5 µM. With `COC(=O)c1ccccc1NC(=S)NC(=O)C1CCCCC1` the figure was 42.5 µM. In the case of `Cc1csc(NC(=O)c2nc(-c3ccccc3)n(-c3ccccc3)n2)n1` it was 31.7 µM; in that of `NNc1nc(-c2ccccc2)c2cc(Br)ccc2n1`, 10.1 µM. In the case of `Cc1c(Cl)cccc1NC(=O)c1cccc(OC(F)F)c1` it was 32.8 µM; in that of `Cc1ccccc1NC1=NC(=S)N(c2ccccc2)C12CCCCC2`, 14.7 µM; in that of `Clc1ccccc1OCc1nnc(-c2ccccc2Br)o1`, 27.9 µM. Take `CCCCN(CC)CCCNC(=O)c1cc2cc3ccc(OC)cc3nc2o1`: the IC50 is 17.2 µM. With `CCCC(=O)NC(=S)Nc1ccc(Cl)cn1` the figure was 30.1 µM; with `CCOC(=O)C1CCCN(C2CC(=O)N(c3cccc(C(F)(F)F)c3)C2=O)C1` (configuration not stated), 13.7 µM. In the case of `Clc1cccc(CN2CCc3c([nH]c4ccccc34)C2)c1` it was 30.7 µM. In the case of `Cc1cc2c(cc1C)CSC(c1ccccc1O)SC2` it was 20.7 µM; in that of `Oc1c(Cl)cc(Cl)cc1/C=C/c1ccc2cccc(O)c2n1`, 42.6 µM; in that of `N=C(N)c1ccc(/C=C/c2ccc(C(=N)N)cc2O)cc1`, 10.6 µM. Turning to `CCOC(=O)c1ccc(N2C(=O)C=CC2=O)cc1`, the IC50 is 2.75 µM.

Consider `CCOC(=O)c1c(-c2ccccc2)csc1NC(=S)NC`, for which the concentration for half-maximal inhibition (IC50) was 44.7 µM. In the case of `O=C(N/N=C/c1ccc[nH]1)c1cc(-c2ccc(Cl)cc2)nc2ccccc12`, the half-inhibitory concentration (IC50) is 10.1 µM.

For `COc1cc(Br)cc(/C=C/c2ccc3cccc(O)c3n2)c1O`, the concentration for half-maximal inhibition (IC50) was 47.2 µM. In the case of `COc1cccc(/C=C2\N=C(C3CCCCC3)OC2=O)c1OC`, the IC50 is 36.3 µM.

On to `CCN(CC)C1CC(=O)N(c2cccc(Cl)c2)C1=O` (configuration not stated), for which the IC50 was 9.25 µM. In the case of `Cc1cccc2nc(COc3ccc(Cl)c4cccnc34)cn12` it was 44.7 µM; in that of `O=C1CC(Sc2nnnn2-c2ccccc2)C(=O)N1c1cccc(Cl)c1` (configuration not stated), 9.03 µM. In the case of `O=[N+]([O-])c1cc(Cl)ccc1N1CCN(c2ccccc2O)CC1` it was 32.3 µM; in that of `O=S(=O)(c1ccc(N2CCC(c3ccc(Cl)cc3)=N2)cc1)N(CCO)CCO`, 20.7 µM; in that of `O=C1CC(Sc2nnc(-c3ccccc3)o2)C(=O)N1c1ccccc1` (configuration not stated), 28.3 µM. With `CCCCNC(=S)N=Nc1c(O)[nH]c2ccccc12` the figure was 9.9 µM. For `N#Cc1ccccc1Cn1c(=O)n(C2CCCC2)c(=O)c2ccccc21`, the half-inhibitory concentration (IC50) was 25.4 µM. For the molecule `CC(C)CN(CC(C)C)C(=S)Nc1ccc(Cl)cc1`, the half-inhibitory concentration (IC50) is 15.6 µM. Regarding `N#Cc1sc2nc(C3CC3)cc(-c3ccc(Cl)cc3)c2c1N`, the IC50 was > 100 µM (inactive). With `O=C(CS(=O)(=O)c1ccccc1)Nc1nc(-c2ccccc2)cs1`, the IC50 was 24.2 µM. For the molecule `COc1ccc2sc(-c3ccc(S(C)(=O)=O)cc3)c(C#CCO)c2c1`, the IC50 was 24.2 µM. In the case of `CCNc1ccc(Br)cc(C(=O)/C=C/c2c(Cl)cccc2Cl)c1=O` it was 22.1 µM. Take `CN(C1CCCCC1)S(=O)(=O)c1ccc(NC(=O)c2ccco2)cc1`: the IC50 is 38 µM. In the case of `C[C@@H]1CC=C[C@H]2[C@H]1C(=O)N(Cc1ccccc1)[C@H]2c1ccc(-c2ccoc2)cc1F` it was 12.4 µM.

Turning to `CCN1C(=O)C2(C(C#N)=C(N)Oc3c2c(C)nn3-c2ccccc2)c2ccccc21` (configuration not stated), the half-maximal inhibitory concentration (IC50) is 22.2 µM. As to `CCOc1cc(/C=C/C(=O)c2ccc(C)cc2)ccc1OCC(=O)N(C)C`, the IC50 was 22 µM. In the case of `COC(=O)c1ccc(NC(=O)CN2CCN(S(=O)(=O)c3ccc(Br)cc3)CC2)cc1` it was 61.5 µM; in that of `CCC(Oc1ccccc1)C(=O)Nc1ncc([N+](=O)[O-])s1` (configuration not stated), 18.3 µM; in that of `CC(C)C(c1nnnn1C1CCCC1)N1CCCc2ccccc21` (configuration not stated), 14.2 µM.

Take `COc1ccc(Br)c(-c2nnc(CS(=O)(=O)c3ccccc3)o2)c1`: the IC50 is 28.4 µM.

Consider `Oc1cc(-c2ccccc2)c2ccccc2c1`, for which the IC50 was 74.2 µM.

In general, IC50 refers to the concentration that inhibits the measured activity by half.
